According to ChEMBL document CHEMBL4007390, “Design, synthesis and biological evaluation of indolin-2-one-based derivatives as potent, selective and efficacious inhibitors of FMS-like tyrosine kinase3 (FLT3)” (Eur J Med Chem, 2017):

How the values were obtained:
[1] = system: RAF proto-oncogene serine/threonine-protein kinase (Homo sapiens), P04049 [Y340D,Y341D]; assay: Inhibition of human RAF1 Y340D/Y341D double mutant at 0.1 uM relative to control
[2] = biological target: Serine/threonine-protein kinase B-raf (Homo sapiens) (UniProt P15056); assay: Inhibition of human BRAF at 0.1 uM relative to control
[3] = Half life in Balb/c nude mouse at 40 mg/kg, po via gavage by LC-MS/MS analysis; format: ADME, organism-based; conditions: in vivo
[4] = biological target: Tyrosine-protein kinase ABL1 (Homo sapiens) (UniProt P00519); assay: Inhibition of human ABL1 at 0.1 uM relative to control
[5] = biological target: Insulin-like growth factor 1 receptor (Homo sapiens) (UniProt P08069); assay: Inhibition of human IGF1R at 0.1 uM relative to control
LC-2-ad = assay: Antiproliferative activity against human LC2/ad cells harboring RET after 72 hrs by MTS assay; format: functional, cell-based
[6] = biological target: Discoidin domain-containing receptor 2 (Homo sapiens) (UniProt Q16832); assay: Inhibition of human DDR2 at 0.1 uM relative to control
[7] = biological target: Epidermal growth factor receptor (Homo sapiens) (UniProt P00533); assay: Inhibition of human EGFR at 0.1 uM relative to control
[8] = biological target: Tyrosine-protein kinase JAK2 (Homo sapiens) (UniProt O60674); assay: Inhibition of human JAK2 at 0.1 uM relative to control
[9] = biological target: Tyrosine-protein kinase Lck (Homo sapiens) (UniProt P06239); assay: Inhibition of human LCK at 0.1 uM relative to control
Cytochrome P450 2B6 = Cytochrome P450 2B6 (Homo sapiens, UniProt P20813); assay: Inhibition of microsomal CYP2B6 (unknown origin) using bupropion as substrate preincubated for 5 mins followed by NADPH addition by LC-MS/MS analysis; format: ADME
[10] = biological target: Tyrosine-protein kinase SYK (Homo sapiens) (UniProt P43405); assay: Inhibition of human SYK at 0.1 uM relative to control
[11] = biological target: Receptor-type tyrosine-protein kinase FLT3 (Homo sapiens, UniProt P36888); assay: Inhibition of human FLT3
Homo sapiens = species: Homo sapiens; assay: Inhibition of human FLT3 ITD mutant at 0.1 uM relative to control
[12] = Inhibition of human FLT3 ITD mutant
[13] = Tmax in Balb/c nude mouse at 40 mg/kg, po via gavage by LC-MS/MS analysis; format: ADME, organism-based; conditions: in vivo
Cytochrome P450 1A2 = Cytochrome P450 1A2 (Homo sapiens, UniProt P05177); assay: Inhibition of microsomal CYP1A2 (unknown origin) using phenacetin as substrate preincubated for 5 mins followed by NADPH addition by LC-MS/MS analysis; format: ADME
[14] = system: Platelet-derived growth factor receptor alpha (Homo sapiens), P16234 [T674I]; assay: Inhibition of human PDGFRalpha T674I mutant at 0.1 uM relative to control
[15] = system: Mast/stem cell growth factor receptor Kit (Homo sapiens), P10721 [T670I]; assay: Inhibition of human KIT T670I mutant at 0.1 uM relative to control
[16] = biological target: Ribosomal protein S6 kinase beta-1 (Homo sapiens) (UniProt P23443); assay: Inhibition of human RPS6KB1 at 0.1 uM relative to control
HUVEC = assay: Antiproliferative activity against HUVEC after 72 hrs by MTS assay; format: cell-based; conditions: Homo sapiens
[17] = biological target: Ephrin type-B receptor 4 (Homo sapiens) (UniProt P54760); assay: Inhibition of human EPHB4 at 0.1 uM relative to control
[18] = biological target: Serine/threonine-protein kinase PLK1 (Homo sapiens) (UniProt P53350); assay: Inhibition of human PLK1 at 0.1 uM relative to control
[19] = biological target: T1, Mast/stem cell growth factor receptor Kit (Homo sapiens, UniProt P10721); assay: Inhibition of human KIT at 0.1 uM relative to control
[20] = biological target: T1, Mast/stem cell growth factor receptor Kit; assay: Inhibition of human KIT
[21] = biological target: ALK tyrosine kinase receptor (Homo sapiens) (UniProt Q9UM73); assay: Inhibition of human ALK at 0.1 uM relative to control
[22] = biological target: Hepatocyte growth factor receptor (Homo sapiens) (UniProt P08581); assay: Inhibition of human c-MET at 0.1 uM relative to control
HL-60 = assay: Antiproliferative activity against FLT3 negative human HL60 cells after 72 hrs by MTS assay; format: functional, cell-based; conditions: HL-60, 72 h
COLO 205 = assay: Antiproliferative activity against human COLO205 cells harboring B-Raf after 72 hrs by MTS assay; format: functional, cell-based; conditions: COLO 205, 72 h
[23] = biological target: Platelet-derived growth factor receptor alpha (Homo sapiens, UniProt P16234); assay: Inhibition of human PDGFRalpha at 0.1 uM relative to control
[24] = biological target: Platelet-derived growth factor receptor beta (Homo sapiens) (UniProt P09619); assay: Inhibition of human PDGFRbeta at 0.1 uM relative to control
Cytochrome P450 3A4 [25] = biological target: T2, Cytochrome P450 3A4 (Homo sapiens, UniProt P08684); assay: Inhibition of microsomal CYP3A4 (unknown origin) using midazolam as substrate preincubated for 5 mins followed by NADPH addition by LC-MS/MS analysis; format: ADME
[26] = system: Platelet-derived growth factor receptor alpha (Homo sapiens), P16234 [V561D]; assay: Inhibition of human PDGFRalpha V561D mutant at 0.1 uM relative to control
[27] = Toxicity in Harlan nude mouse xenografted with human MV4-11 cells administered ig bid for 20 days; conditions: in vivo, po
Cytochrome P450 3A4 [28] = biological target: T2, Cytochrome P450 3A4; assay: Inhibition of microsomal CYP3A4 (unknown origin) using testosterone as substrate preincubated for 5 mins followed by NADPH addition by LC-MS/MS analysis; format: ADME
KG-1 = assay: Antiproliferative activity against human KG1 cells harboring wild type FLT3 after 72 hrs by MTS assay; format: functional, cell-based; conditions: KG-1, 72 h
[29] = biological target: AMPK alpha2/beta1/gamma1 (Homo sapiens) (UniProt P54646+P54619+Q9Y478); assay: Inhibition of human AMPK alpha2/beta1/gamma1 at 0.1 uM relative to control; format: protein-complex assay
[30] = biological target: Tyrosine-protein kinase receptor UFO (Homo sapiens) (UniProt P30530); assay: Inhibition of human AXL at 0.1 uM relative to control
[31] = biological target: Proto-oncogene tyrosine-protein kinase receptor Ret (Homo sapiens) (UniProt P07949); assay: Inhibition of human RET at 0.1 uM relative to control
[32] = biological target: Vascular endothelial growth factor receptor 1 (Homo sapiens) (UniProt P17948); assay: Inhibition of human VEGFR1 at 0.1 uM relative to control
MV4-11 = assay: Antitumor activity against human MV4-11 cells xenografted in Harlan nude mouse assessed as tumor growth inhibition at 20 mg/kg, ig bid for 20 days relative to control; format: functional; conditions: MV4-11, po, 480 h, read-out: TGI
[33] = biological target: Serine/threonine-protein kinase Nek6 (Homo sapiens) (UniProt Q9HC98); assay: Inhibition of human NEK6 at 0.1 uM relative to control
Serine/threonine-protein kinase Nek6 (Homo sapiens), sequence (Q9HC98 whole entry): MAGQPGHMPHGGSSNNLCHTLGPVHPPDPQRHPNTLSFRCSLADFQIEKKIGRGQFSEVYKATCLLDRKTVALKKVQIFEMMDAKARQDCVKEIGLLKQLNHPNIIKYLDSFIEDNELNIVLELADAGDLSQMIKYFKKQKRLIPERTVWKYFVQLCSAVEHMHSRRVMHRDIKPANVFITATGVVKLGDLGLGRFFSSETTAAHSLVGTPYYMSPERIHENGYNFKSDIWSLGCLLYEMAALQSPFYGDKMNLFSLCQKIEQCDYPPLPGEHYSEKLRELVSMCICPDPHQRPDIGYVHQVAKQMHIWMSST

T1 sequence (P10721 whole entry): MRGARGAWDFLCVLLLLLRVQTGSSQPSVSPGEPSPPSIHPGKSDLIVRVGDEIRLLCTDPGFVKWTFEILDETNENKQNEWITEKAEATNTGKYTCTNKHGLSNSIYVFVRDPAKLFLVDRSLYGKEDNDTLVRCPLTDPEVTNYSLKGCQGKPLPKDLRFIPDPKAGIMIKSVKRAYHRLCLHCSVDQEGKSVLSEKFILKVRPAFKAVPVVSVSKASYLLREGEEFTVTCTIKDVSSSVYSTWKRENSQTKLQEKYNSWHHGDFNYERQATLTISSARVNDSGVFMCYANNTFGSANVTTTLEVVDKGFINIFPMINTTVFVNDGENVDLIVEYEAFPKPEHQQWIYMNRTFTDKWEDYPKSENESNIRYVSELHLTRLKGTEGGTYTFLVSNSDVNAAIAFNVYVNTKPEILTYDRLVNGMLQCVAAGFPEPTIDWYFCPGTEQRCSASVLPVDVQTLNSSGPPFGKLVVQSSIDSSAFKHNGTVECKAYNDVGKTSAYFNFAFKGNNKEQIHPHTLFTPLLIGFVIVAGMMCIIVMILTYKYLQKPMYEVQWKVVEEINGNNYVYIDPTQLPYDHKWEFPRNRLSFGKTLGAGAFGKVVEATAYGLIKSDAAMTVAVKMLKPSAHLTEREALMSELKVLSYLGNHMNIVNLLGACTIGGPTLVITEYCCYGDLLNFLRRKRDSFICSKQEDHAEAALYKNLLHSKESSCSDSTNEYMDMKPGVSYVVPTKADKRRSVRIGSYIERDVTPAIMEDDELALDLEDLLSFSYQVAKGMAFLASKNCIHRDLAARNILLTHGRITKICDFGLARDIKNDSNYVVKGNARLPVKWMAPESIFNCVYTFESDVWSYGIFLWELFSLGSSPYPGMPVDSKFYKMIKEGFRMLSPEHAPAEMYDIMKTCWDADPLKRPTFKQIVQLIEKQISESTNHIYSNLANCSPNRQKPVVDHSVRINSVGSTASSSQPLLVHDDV
T2 sequence (P08684 whole entry): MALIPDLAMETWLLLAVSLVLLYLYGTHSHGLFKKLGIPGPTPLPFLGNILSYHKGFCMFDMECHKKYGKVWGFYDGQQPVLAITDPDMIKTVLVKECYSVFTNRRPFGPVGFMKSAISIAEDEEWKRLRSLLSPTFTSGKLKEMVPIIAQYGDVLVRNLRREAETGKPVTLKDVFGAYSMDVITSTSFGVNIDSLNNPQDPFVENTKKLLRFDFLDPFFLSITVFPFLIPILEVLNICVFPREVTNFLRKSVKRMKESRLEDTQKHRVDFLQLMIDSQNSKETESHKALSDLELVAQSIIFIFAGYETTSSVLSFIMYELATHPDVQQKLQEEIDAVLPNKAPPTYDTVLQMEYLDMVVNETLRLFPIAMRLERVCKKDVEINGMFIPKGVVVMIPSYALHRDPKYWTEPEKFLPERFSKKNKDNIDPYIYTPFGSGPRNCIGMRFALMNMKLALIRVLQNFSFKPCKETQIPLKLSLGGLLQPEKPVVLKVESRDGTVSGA
Cytochrome P450 2B6, sequence (P20813 whole entry): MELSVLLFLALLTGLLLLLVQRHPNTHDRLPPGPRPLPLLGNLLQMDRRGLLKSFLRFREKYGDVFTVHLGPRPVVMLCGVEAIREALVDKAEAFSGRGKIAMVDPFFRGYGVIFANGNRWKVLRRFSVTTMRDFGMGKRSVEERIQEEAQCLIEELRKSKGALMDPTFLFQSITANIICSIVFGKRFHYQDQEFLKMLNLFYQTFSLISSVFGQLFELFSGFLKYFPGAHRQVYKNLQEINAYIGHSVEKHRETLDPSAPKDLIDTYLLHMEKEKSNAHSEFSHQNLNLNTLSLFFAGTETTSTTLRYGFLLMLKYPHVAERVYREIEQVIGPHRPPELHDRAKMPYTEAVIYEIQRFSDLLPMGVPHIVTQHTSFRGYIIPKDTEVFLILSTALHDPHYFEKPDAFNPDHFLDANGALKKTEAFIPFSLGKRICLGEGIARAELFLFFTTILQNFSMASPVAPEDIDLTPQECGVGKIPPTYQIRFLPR
Serine/threonine-protein kinase PLK1 (Homo sapiens), sequence (P53350 whole entry): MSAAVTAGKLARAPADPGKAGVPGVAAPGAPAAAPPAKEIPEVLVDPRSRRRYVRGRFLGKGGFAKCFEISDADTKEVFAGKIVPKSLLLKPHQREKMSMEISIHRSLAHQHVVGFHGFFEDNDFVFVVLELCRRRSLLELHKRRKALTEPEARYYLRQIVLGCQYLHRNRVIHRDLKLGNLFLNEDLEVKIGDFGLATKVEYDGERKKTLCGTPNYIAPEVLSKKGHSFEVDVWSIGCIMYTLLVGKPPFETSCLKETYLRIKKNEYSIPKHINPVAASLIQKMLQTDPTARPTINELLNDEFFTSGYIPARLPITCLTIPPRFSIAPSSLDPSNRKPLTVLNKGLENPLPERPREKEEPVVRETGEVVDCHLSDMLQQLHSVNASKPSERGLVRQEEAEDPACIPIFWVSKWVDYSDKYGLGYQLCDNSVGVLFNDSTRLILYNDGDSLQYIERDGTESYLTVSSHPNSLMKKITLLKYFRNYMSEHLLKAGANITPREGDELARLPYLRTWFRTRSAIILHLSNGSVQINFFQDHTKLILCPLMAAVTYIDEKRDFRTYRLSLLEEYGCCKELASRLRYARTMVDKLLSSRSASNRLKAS
AMPK alpha2/beta1/gamma1 (Homo sapiens), sequence (P54619 whole entry partner): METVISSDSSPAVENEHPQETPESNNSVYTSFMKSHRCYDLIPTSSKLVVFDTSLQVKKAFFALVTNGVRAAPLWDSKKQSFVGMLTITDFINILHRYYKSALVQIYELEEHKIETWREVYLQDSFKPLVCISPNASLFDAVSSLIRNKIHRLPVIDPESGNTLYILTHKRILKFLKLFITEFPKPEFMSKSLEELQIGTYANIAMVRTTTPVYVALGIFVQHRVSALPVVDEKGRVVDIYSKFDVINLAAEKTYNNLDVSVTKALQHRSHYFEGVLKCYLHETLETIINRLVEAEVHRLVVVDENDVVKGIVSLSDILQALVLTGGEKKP
AMPK alpha2/beta1/gamma1 (Homo sapiens), sequence (P54646 whole entry): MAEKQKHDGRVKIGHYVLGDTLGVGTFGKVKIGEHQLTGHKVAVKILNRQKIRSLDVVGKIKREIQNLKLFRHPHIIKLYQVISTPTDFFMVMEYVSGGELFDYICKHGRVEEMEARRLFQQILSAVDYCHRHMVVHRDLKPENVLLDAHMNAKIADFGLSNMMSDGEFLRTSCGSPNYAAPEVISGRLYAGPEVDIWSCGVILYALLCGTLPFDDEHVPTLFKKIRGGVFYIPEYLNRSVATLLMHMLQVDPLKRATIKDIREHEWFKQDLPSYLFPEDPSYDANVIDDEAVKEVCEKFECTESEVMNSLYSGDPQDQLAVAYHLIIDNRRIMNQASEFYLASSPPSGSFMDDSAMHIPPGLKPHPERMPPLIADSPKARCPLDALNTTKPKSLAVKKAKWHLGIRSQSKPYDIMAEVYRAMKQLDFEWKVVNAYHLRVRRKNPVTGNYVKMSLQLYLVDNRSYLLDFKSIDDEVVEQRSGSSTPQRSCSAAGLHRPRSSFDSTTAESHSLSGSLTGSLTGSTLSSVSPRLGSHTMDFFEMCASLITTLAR
AMPK alpha2/beta1/gamma1 (Homo sapiens), sequence (Q9Y478 2-270 partner limits assumed): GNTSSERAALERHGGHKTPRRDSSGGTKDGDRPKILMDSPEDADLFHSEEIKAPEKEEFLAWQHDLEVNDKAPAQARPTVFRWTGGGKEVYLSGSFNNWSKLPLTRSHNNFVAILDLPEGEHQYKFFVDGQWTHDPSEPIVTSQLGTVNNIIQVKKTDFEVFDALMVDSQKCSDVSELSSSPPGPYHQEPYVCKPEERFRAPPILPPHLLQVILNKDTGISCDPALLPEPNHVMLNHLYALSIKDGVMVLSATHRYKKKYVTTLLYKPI
Serine/threonine-protein kinase B-raf (Homo sapiens), sequence (P15056 whole entry): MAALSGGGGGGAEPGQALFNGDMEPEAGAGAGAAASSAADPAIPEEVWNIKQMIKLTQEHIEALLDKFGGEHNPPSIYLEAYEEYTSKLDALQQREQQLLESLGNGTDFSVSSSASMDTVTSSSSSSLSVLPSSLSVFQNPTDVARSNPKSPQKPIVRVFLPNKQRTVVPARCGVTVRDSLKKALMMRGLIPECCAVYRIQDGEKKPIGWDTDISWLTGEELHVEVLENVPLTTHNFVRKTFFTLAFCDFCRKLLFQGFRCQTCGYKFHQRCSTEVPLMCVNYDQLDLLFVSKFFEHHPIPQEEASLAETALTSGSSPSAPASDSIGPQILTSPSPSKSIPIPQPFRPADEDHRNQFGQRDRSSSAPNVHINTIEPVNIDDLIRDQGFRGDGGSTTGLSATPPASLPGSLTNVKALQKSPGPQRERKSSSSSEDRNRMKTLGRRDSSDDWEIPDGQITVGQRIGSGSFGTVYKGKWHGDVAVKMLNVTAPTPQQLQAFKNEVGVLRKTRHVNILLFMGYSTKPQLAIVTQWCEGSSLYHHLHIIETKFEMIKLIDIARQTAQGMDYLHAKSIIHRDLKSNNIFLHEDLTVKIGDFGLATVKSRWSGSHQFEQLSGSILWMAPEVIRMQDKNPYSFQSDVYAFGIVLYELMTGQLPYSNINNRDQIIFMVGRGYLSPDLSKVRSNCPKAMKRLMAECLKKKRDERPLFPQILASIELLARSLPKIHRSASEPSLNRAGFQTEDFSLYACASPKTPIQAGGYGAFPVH
Mast/stem cell growth factor receptor Kit (Homo sapiens), P10721 [T670I], sequence (P10721 whole entry T670I): as the sequence (P10721 whole entry) above, with T670I counted along it

Q: For Cc1[nH]c(/C=C2\C(=O)Nc3ccc(F)cc32)c(C)c1NC(=O)[C@H]1CCCN1.Cl, which inhibition [1] is on record?
A: 18%

Q: What about the inhibition [2] of the same compound?
A: 0%

Q: And the half-life [3]?
A: 96 min

Q: And the inhibition [4]?
A: 20%

Q: What about the inhibition [5] of the same compound?
A: 13%

Q: What about the IC50 (LC-2-ad) of the same compound?
A: 621 nM

Q: What about the inhibition [6] of the same compound?
A: 7%

Q: What about the inhibition [7] of the same compound?
A: -1%

Q: And the inhibition [8]?
A: -4%

Q: And the inhibition [9]?
A: 43%

Q: What about the IC50 (Cytochrome P450 2B6) of the same compound?
A: > 33 µM

Q: And the inhibition [10]?
A: -3%

Q: And the IC50 [11]?
A: 5.3 nM

Q: What about the inhibition (Homo sapiens) of the same compound?
A: 105%

Q: What about the IC50 [12] of the same compound?
A: 0.7 nM

Q: What about the Tmax [13] of the same compound?
A: 2 h

Q: And the IC50 (Cytochrome P450 1A2)?
A: 17.7 µM

Q: What about the inhibition [14] of the same compound?
A: 98%

Q: What about the inhibition [15] of the same compound?
A: 77%

Q: And the inhibition [16]?
A: 8%

Q: What about the IC50 (HUVEC) of the same compound?
A: 11.3 µM

Q: What about the inhibition [17] of the same compound?
A: -4%

Q: And the inhibition [18]?
A: -3%

Q: And the inhibition [19]?
A: 85%

Q: What about the IC50 [20] of the same compound?
A: 227 nM

Q: What about the inhibition [21] of the same compound?
A: 63%

Q: What about the inhibition [22] of the same compound?
A: -8%

Q: And the IC50 (HL-60)?
A: 6.47 µM

Q: What about the IC50 (COLO 205) of the same compound?
A: 6.6 µM

Q: And the inhibition [23]?
A: 49%

Q: And the inhibition [24]?
A: 48%

Q: And the IC50 (Cytochrome P450 3A4 [25])?
A: > 33 µM

Q: What about the inhibition [26] of the same compound?
A: 82%

Q: What about the MTD at 480 h [27] of the same compound?
A: 160 mg/kg/day

Q: And the IC50 (Cytochrome P450 3A4 [28])?
A: > 33 µM

Q: What about the IC50 (KG-1) of the same compound?
A: 24.5 µM

Q: What about the inhibition [29] of the same compound?
A: 58%

Q: What about the inhibition [30] of the same compound?
A: 44%

Q: And the inhibition [31]?
A: 88%

Q: What about the inhibition [32] of the same compound?
A: 30%

Q: And the inhibition in vivo at 20 mg/kg (MV4-11)?
A: 99.8%

Q: What about the inhibition [33] of the same compound?
A: 8%
